{
  "source": "patent US20260183312A1",
  "about": "“A ROOM-TEMPERATURE STABLE, UNBUFFERED FORMULATION OF ROCURONIUM BROMIDE INJECTION FOR INTRAVENOUS ADMINISTRATION AND A METHOD THEREOF” (MAIVA PHARMA PRIVATE LIMITED, priority 2023, published 2026)",
  "origin": "cited, not measured here",
  "data": [
    {"compound": "C=CC[N+]1([C@H]2C[C@H]3[C@@H]4CC[C@H]5C[C@H](O)[C@@H](N6CCOCC6)C[C@]5(C)[C@H]4CC[C@]3(C)[C@H]2OC(C)=O)CCCC1", "note": "[Rocuronium, Rocuronium bromide]", "values": [
      {"measurement": "Patients with severe burning pain on administration", "result": "up to 80%"}
    ]}
  ]
}
